Measured values reported in patent publication US11306084B2, “Integrin antagonists” (Saint Louis University, priority 2016, dated 2022).
Structures can show the parent of a compound that is named as a salt.

Tests used:
Assay type in all cases: binding
[1] = target: T1, Recombinant human integrin ανβ6 (Homo sapiens, UniProt P06756+P18564); assay: Solid Phase Receptor Assay (SPRA) for ανβ6 function; conditions: plate-bound human LAP; read-out: αvβ6 SPRA IC50
T1 construct: purchased R&D Systems 3817-AV
T1 sequence (P06756 31-992 limits assumed): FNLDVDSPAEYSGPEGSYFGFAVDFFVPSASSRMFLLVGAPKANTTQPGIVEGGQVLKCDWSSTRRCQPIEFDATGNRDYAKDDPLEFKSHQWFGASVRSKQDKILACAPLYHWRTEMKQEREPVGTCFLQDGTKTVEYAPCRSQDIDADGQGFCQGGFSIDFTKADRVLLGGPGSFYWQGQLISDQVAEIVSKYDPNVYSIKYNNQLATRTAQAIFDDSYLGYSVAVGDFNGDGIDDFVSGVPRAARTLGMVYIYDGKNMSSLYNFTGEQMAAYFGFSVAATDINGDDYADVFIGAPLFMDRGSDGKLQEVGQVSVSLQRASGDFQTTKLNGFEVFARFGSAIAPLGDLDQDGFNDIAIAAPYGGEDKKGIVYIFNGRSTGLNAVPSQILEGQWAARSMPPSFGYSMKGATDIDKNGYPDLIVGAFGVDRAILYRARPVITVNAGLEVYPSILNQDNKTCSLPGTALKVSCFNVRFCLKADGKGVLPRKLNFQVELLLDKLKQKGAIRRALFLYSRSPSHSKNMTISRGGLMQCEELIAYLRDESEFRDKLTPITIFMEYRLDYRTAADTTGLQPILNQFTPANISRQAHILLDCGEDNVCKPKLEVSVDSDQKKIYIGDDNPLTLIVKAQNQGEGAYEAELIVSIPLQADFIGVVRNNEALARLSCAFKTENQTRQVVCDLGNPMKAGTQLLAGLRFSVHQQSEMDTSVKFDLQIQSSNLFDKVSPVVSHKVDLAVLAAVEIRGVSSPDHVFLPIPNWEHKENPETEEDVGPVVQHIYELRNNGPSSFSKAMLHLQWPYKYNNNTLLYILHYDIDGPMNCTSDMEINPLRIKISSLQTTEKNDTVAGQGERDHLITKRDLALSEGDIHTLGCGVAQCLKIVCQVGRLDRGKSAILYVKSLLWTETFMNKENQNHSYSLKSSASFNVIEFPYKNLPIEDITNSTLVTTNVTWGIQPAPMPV
T1 sequence (P18564 22-707 limits assumed): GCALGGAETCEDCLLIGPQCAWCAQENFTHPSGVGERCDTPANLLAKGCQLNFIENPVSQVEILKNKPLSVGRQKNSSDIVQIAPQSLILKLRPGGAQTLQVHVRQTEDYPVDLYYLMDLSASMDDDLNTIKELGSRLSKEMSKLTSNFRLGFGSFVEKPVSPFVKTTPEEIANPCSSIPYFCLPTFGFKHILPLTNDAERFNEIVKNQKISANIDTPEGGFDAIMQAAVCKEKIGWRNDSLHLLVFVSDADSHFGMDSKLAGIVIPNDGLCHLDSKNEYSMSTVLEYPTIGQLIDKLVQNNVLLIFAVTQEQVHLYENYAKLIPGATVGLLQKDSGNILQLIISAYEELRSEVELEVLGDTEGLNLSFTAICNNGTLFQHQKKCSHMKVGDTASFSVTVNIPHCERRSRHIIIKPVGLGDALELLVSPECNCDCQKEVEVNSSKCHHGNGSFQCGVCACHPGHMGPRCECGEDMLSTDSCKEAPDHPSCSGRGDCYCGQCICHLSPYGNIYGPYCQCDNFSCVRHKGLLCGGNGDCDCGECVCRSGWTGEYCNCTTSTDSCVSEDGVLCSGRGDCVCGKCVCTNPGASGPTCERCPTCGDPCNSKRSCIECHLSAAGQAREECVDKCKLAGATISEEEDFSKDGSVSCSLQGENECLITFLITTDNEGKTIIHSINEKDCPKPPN
Method: E. Solid Phase Receptor Assay (SPRA) for ανβ6 Function
Wells were washed 3 times with 150 μL TBS+, and then 150 μL of blocking buffer (TBS+ with 1% bovine serum albumin, Sigma A7906) was added. The plate was incubated for 1 hr at 37° C., and then washed 3× with TBS+ buffer. […] Compounds were diluted to 20 μM and then 1 μL was added to each well of the plate according to a standard template with each sample repeated in triplicate. After incubation for two hours at room temperature, the plate was washed 3× with 150 μL of TBS+ buffer. To each well, 50 μL of biotinylated anti-αν antibody (R&D Systems, BAF1219) at 0.5 μg/mL in TBS+/0.1% BSA were added and the plate was covered and incubated for 1 hr at room temperature. After washing the plate 3× with 150 μL of TBS+ buffer, 50 μL of streptavidin-conjugated horseradish peroxidase (R&D Systems, DY998) diluted in TBS+ blocking buffer were added to the wells and the plate incubated for 20 min at room temperature. The plate was washed 3× with TBS+ buffer followed by 50 μL of TMB substrate (Sigma T4444) added to each well in the dark and the plate incubated for 10 min at room temperature. 25 μL of 1.0 M phosphoric acid was added as a stop solution and the plates were read at 450 nm using a Spectramax plate reader.

[2] = target: T2, Recombinant human integrin ανβ3 (Homo sapiens, UniProt P05106+P06756); assay: Solid Phase Receptor Assay (SPRA) for ανβ3 function; conditions: plate-bound human vitronectin; read-out: αvβ3 SPRA IC50
T2 construct: purchased R&D Systems 3050-AV
T2 sequence (P06756 31-992 limits assumed): as the sequence (P06756 31-992 limits assumed) above
T2 sequence (P05106 27-718 limits assumed): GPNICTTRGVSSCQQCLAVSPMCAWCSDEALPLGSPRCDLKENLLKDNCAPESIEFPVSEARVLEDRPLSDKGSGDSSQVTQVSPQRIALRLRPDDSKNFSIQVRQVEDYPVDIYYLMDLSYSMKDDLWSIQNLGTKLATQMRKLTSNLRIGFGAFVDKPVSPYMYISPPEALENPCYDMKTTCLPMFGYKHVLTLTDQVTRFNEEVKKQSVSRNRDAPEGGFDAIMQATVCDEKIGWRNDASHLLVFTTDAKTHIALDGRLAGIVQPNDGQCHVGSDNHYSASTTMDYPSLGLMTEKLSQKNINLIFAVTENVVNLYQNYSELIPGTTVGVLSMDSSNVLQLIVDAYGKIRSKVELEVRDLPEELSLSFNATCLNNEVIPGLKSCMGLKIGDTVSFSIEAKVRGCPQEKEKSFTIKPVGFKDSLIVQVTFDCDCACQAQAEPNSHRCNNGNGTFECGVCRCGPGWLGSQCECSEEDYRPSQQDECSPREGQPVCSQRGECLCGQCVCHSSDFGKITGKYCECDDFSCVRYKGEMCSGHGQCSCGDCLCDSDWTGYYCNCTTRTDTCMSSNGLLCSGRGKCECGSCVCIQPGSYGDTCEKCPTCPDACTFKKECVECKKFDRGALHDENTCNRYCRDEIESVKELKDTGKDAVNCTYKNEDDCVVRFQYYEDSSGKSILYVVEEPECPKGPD
Method: C. Solid Phase Receptor Assay (SPRA) for ανβ3 Function
Wells were washed 3 times with 150 μL TBS+ and then 150 μL of blocking buffer (TBS+ with 1% bovine serum albumin, Sigma A7906) was added. The plate was incubated for 1 hr at 37° C. and then washed 3× with TBS+ buffer. […] Compounds were diluted to 20 μM and then 1 μL was added to each well of the plate according to a standard template with each sample repeated in triplicate. After incubation for two hours at room temperature, the plate was washed 3× with 150 μL of TBS+ buffer. To each well, 50 μL of biotinylated anti-αν antibody (R&D Systems, BAF1219) at 0.5 μg/mL in TBS+/0.1% BSA were added and the plate covered and incubated for 1 hr at room temperature. After washing the plate 3× with 150 μL of TBS+ buffer, 50 μL of streptavidin-conjugated horseradish peroxidase (R&D Systems, DY998) diluted in TBS+ blocking buffer were added to the wells and the plate incubated for 20 min at room temperature. The plate was washed 3× with TBS+ buffer followed by 50 μL of TMB substrate (Sigma, T4444) added to each well in the dark and the plate was incubated for 25 min at room temperature. 25 μL of 1.0 M phosphoric acid was added as a stop solution and the plates were read at 450 nm using a Spectramax plate reader.

[3] = target: T3, Recombinant human integrin α5β1 (Homo sapiens, UniProt P05556+P08648); assay: Solid Phase Receptor Assay (SPRA) for α5β1 function; conditions: plate-bound human fibronectin
T3 construct: purchased R&D Systems 3230-A5
T3 sequence (P08648 42-995 limits assumed): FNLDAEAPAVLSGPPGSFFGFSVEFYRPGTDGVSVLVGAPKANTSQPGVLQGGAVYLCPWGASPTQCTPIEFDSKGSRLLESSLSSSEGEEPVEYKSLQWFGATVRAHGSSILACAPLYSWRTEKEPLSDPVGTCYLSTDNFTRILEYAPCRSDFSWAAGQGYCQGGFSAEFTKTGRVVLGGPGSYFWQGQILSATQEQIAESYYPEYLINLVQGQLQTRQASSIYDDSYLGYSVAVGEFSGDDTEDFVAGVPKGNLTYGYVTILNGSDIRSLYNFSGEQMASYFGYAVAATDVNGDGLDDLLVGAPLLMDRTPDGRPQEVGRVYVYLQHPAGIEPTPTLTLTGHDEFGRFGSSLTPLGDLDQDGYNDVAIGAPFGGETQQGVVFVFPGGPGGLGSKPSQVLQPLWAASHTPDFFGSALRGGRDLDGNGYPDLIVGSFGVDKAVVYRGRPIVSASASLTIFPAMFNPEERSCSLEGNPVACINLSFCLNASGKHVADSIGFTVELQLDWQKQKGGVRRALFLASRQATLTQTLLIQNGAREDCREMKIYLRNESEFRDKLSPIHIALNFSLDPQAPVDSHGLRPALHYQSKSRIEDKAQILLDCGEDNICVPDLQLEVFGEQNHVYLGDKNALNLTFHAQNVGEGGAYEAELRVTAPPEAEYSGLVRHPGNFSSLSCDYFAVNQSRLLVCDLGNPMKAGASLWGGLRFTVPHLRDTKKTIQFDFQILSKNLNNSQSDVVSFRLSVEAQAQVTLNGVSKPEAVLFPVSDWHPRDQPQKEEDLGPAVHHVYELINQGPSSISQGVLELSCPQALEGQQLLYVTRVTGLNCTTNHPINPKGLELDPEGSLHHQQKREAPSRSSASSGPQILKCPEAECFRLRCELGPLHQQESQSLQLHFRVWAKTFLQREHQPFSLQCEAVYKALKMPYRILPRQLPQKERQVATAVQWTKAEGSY
T3 sequence (P05556 21-728 limits assumed): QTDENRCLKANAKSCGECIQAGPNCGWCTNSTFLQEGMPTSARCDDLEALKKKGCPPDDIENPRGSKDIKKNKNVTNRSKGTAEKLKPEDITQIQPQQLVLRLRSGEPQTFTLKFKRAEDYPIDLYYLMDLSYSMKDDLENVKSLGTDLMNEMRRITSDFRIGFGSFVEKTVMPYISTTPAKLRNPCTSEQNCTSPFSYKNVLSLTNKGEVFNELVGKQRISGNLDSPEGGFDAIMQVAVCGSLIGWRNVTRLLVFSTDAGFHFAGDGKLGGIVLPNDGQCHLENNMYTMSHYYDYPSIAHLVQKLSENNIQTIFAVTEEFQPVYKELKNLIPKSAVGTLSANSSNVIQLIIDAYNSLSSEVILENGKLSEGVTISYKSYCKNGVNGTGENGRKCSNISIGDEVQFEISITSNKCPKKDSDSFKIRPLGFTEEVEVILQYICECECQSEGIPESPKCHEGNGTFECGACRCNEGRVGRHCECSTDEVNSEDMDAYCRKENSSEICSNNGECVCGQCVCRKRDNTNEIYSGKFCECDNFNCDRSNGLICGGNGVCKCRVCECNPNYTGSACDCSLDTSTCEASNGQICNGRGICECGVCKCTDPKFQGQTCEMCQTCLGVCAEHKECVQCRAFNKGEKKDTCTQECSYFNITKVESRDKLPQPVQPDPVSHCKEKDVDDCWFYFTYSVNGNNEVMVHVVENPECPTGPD
Method: A. Solid Phase Receptor Assay (SPRA) for α5β1 Function
Wells were washed 3 times with 150 μL TBS+ and then 150 μL of blocking buffer (TBS+ with 1% bovine serum albumin, Sigma A7906) was added. The plate was incubated for 1 hr at 37° C. and then washed 3× with TBS+ buffer. […] Compounds were diluted to 20 μM and then 1 μL was added to each well of the plate according to a standard template with each sample repeated in triplicate. After incubation for two hours at room temperature, the plate was washed 3× with 150 μL of TBS+ buffer. To each well, 50 μL of biotinylated anti-α5 antibody (R&D Systems, BAF1864) at 0.5 μg/mL in TBS+/0.1% BSA were added and the plate covered and incubated for 1 hr at room temperature. After washing the plate 3× with 150 μL of TBS+ buffer, 50 μL of streptavidin-conjugated horseradish peroxidase (R&D Systems, DY998) diluted in TBS+ blocking buffer were added to the wells and the plate incubated for 20 min at room temperature. The plate was washed 3× with TBS+ buffer followed by 50 μL of room temperature TMB substrate (Sigma, T4444) added to each well in the dark and the plate incubated for 25 min at room temperature. 25 μL of 1.0 M phosphoric acid was added as a stop solution and the plates were read at 450 nm using a Spectramax plate reader.

[4] = target: T4, Recombinant human integrin ανβ5 (Homo sapiens, UniProt P06756+P18084); assay: Solid Phase Receptor Assay (SPRA) for ανβ5 function; conditions: plate-bound human vitronectin; read-out: αvβ5 SPRA IC50
T4 construct: purchased R&D Systems 2528-AV
T4 sequence (P06756 31-992 limits assumed): as the sequence (P06756 31-992 limits assumed) above
T4 sequence (P18084 24-719 limits assumed): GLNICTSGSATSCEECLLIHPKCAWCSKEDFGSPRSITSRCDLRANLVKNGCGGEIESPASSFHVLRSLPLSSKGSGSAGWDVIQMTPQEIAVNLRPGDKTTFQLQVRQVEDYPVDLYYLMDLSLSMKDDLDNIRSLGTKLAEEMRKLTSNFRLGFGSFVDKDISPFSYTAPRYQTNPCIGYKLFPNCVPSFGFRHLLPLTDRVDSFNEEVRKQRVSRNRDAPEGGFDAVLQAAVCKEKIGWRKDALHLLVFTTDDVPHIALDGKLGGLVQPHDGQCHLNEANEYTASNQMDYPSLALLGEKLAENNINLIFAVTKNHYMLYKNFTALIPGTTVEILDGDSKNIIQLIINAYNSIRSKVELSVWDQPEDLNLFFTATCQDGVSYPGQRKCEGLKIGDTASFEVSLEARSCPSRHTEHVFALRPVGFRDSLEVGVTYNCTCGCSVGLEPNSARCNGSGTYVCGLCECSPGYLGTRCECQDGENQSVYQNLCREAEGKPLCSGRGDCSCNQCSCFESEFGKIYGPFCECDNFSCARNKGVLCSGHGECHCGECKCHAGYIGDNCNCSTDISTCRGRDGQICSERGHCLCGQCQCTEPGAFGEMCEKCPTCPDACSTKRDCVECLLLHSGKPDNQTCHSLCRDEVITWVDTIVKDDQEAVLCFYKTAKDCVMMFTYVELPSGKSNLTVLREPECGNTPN
Method: D. Solid Phase Receptor Assay (SPRA) for ανβ5 Function
Wells were washed 3 times with 150 μL TBS+ and then 150 μL of blocking buffer (TBS+ with 1% bovine serum albumin, Sigma A7906) was added. The plate was incubated for 1 hr at 37° C. and then washed 3× with TBS+ buffer. […] Compounds were diluted to 20 μM and then 1 μL was added to each well of the plate according to a standard template with each sample repeated in triplicate. After incubation for two hours at room temperature, the plate was washed 3× with 150 μL of TBS+ buffer. To each well, 50 μl of biotinylated anti-αν antibody (R&D Systems, BAF1219) at 0.5 μg/mL in TBS+/0.1% BSA at 0.5 μg/mL were added and the plate covered and incubated for 1 hr at room temperature. After washing the plate 3 with 150 μL of TBS+ buffer, 50 μL of streptavidin-conjugated horseradish peroxidase (R&D Systems, DY998) diluted in TBS+ blocking buffer were added to the wells and the plate incubated for 20 min at room temperature. The plate was washed 3× with TBS+ buffer followed by 50 μL of TMB substrate (Sigma T4444) added to each well in the dark and the plate incubated for 5 min at room temperature. 25 μL of 1.0 M phosphoric acid was added as a stop solution and the plates were read at 450 nm using a Spectramax plate reader.

| SMILES | IC50 [1] | IC50 [2] | IC50 [3] | IC50 [4] |
| --- | --- | --- | --- | --- |
| Cn1nc(CC(CC(=O)O)c2cc(C(F)(F)F)cc(C3(C(F)F)CC3)c2)cc1OCCc1ccc2c(n1)NCCC2 (stereo not drawn) [Example 23, 3-(3-(1-(difluoromethyl)cyclopropyl)-5-(trifluoromethyl)phenyl)-4-(1-methyl-5-(2-(5,6,7,8-tetrahydro-1,8-naphthyridin-2-yl)ethoxy)-1H-pyrazol-3-yl)butanoic Acid] | 38 nM | 7.5 nM | 8.8 nM | 6.5 nM |
| COc1cc(C(C)(C)C)ccc1C(CC(=O)O)Cc1cc(OCCc2ccc3c(n2)NCCC3)n(C)n1 (stereo not drawn) [Example 34, 3-(4-(tert-butyl)-2-methoxyphenyl)-4-(1-methyl-5-(2-(5,6,7,8-tetrahydro-1,8-naphthyridin-2-yl)ethoxy)-1H-pyrazol-3-yl)butanoic Acid] | 130 nM | 4.6 nM | 550 nM | 2.3 nM |
| Cn1nc(CC(CC(=O)O)c2cc(OC(F)(F)F)cc(C(C)(C)C)c2)cc1OCCc1ccc2c(n1)NCCC2 (stereo not drawn) [Example 36, 3-[3-tert-butyl-5-(trifluoromethoxy)phenyl]-4-[1-methyl-5-[2-(5,6,7,8-tetrahydro-1,8-naphthyridin-2-yl)ethoxy]pyrazol-3-yl]butanoic Acid] | 120 nM | 10 nM | 7.1 nM | 1.1 nM |
| Cn1nc(CC(CC(=O)O)c2cc(F)cc(C(C)(C)C(F)(F)F)c2)cc1OCCc1ccc2c(n1)NCCC2 (stereo not drawn) [Example 24, 3-(3-fluoro-5-(1,1,1-trifluoro-2-methylpropan-2-yl)phenyl)-4-(1-methyl-5-(2-(5,6,7,8-tetrahydro-1,8-naphthyridin-2-yl)ethoxy)-1H-pyrazol-3-yl)butanoic Acid] | 110 nM | 4.5 nM | 15 nM | 0.2 nM |
| COCC1(c2cc(C(CC(=O)O)Cc3cc(OCCc4ccc5c(n4)NCCC5)n(C)n3)cc(C(F)(F)F)c2)CCOCC1 (stereo not drawn) [Example 31, 3-(3-(4-(methoxymethyl)tetrahydro-2H-pyran-4-yl)-5-(trifluoromethyl)phenyl)-4-(1-methyl-5-(2-(5,6,7,8-tetrahydro-1,8-naphthyridin-2-yl)ethoxy)-1H-pyrazol-3-yl)butanoic Acid] | 63 nM | 6.5 nM | 12 nM | 3.3 nM |
| Cn1nc(CC(CC(=O)O)c2cccc(Br)c2)cc1OCCc1ccc2c(n1)NCCC2 (stereo not drawn) [Example 6, 3-(3-bromophenyl)-4-(1-methyl-5-(2-(5,6,7,8-tetrahydro-1,8-naphthyridin-2-yl)ethoxy)-1H-pyrazol-3-yl)butanoic Acid] | 8 nM | 5 nM | 158 nM | 0.4 nM |
| Cn1nc(CC(CC(=O)O)c2cc(Cl)cc(C3(C(F)F)CC3)c2)cc1OCCc1ccc2c(n1)NCCC2 (stereo not drawn) [Example 22, 3-(3-chloro-5-(1-(difluoromethyl)cyclopropyl)phenyl)-4-(1-methyl-5-(2-(5,6,7,8-tetrahydro-1,8-naphthyridin-2-yl)ethoxy)-1H-pyrazol-3-yl)butanoic Acid] | 26 nM | 3.3 nM | 8.8 nM | 0.6 nM |
| Cn1nc(CC(CC(=O)O)c2ccc3c(c2)OCCO3)cc1OCCc1ccc2c(n1)NCCC2 (stereo not drawn) [Example 1, 3-(2,3-dihydrobenzo[b][1,4]dioxin-6-yl)-4-(1-methyl-5-(2-(5,6,7,8-tetrahydro-1,8-naphthyridin-2-yl)ethoxy)-1H-pyrazol-3-yl)butanoic Acid] | 35 nM | 5 nM | 229 nM | 0.9 nM |
| Cn1nc(CC(CC(=O)O)c2ccc(C#N)c(F)c2)cc1OCCc1ccc2c(n1)NCCC2 (stereo not drawn) [Example 8] | 52 nM | 6 nM | 166 nM | 1 nM |
| Cn1nc(CC(CC(=O)O)c2cc(Br)cc(OC(F)(F)F)c2)cc1OCCc1ccc2c(n1)NCCC2 (stereo not drawn) [Example 11, 3-(3-bromo-5-(trifluoromethoxy)phenyl)-4-(1-methyl-5-(2-(5,6,7,8-tetrahydro-1,8-naphthyridin-2-yl)ethoxy)-1H-pyrazol-3-yl)butanoic Acid] | 60 nM | 6 nM | 150 nM | 0.8 nM |
| Cn1nc(CC(CC(=O)O)c2cc(C(C)(C)C)ccc2O)cc1OCCc1ccc2c(n1)NCCC2 (stereo not drawn) [Example 42, 3-(5-tert-butyl-2-hydroxy-phenyl)-4-[1-methyl-5-[2-(5,6,7,8-tetrahydro-1,8-naphthyridin-2-yl)ethoxyl]pyrazol-3-yl]butanoic Acid Sodium Salt] | 20 nM | 18 nM | 2.1 nM | 6.6 nM |
| Cn1nc(CC(CC(=O)O)c2cc(C#N)cc(C(C)(C)C)c2)cc1OCCc1ccc2c(n1)NCCC2 (stereo not drawn) [Example 17] | 28 nM | 7.4 nM | 11 nM | 0.4 nM |
| Cn1nc(CC(CC(=O)O)c2cc(C#N)cc(C3(C(F)F)CC3)c2)cc1OCCc1ccc2c(n1)NCCC2 (stereo not drawn) [Example 20, 3-(3-cyano-5-(1-(difluoromethyl)cyclopropyl)phenyl)-4-(1-methyl-5-(2-(5,6,7,8-tetrahydro-1,8-naphthyridin-2-yl)ethoxy)-1H-pyrazol-3-yl)butanoic Acid] | 17 nM | 3.6 nM | 5.5 nM | 0.2 nM |
| CC(C)(C)c1cc(Br)cc(C(CC(=O)O)Cc2cc(OCCc3ccc4c(n3)NCCC4)n(CC(F)(F)F)n2)c1 (stereo not drawn) [Example 41, 3-(3-bromo-5-tert-butyl-phenyl)-4-[5-[2-(5,6,7,8-tetrahydro-1,8-naphthyridin-2-yl)ethoxy]-1-(2,2,2-trifluoroethyl)pyrazol-3-yl]butanoic Acid Trifluoroacetate] | 85 nM | 9 nM | 6.5 nM | 2.2 nM |
| Cn1nc(CC(CC(=O)O)c2cc(F)cc(Cl)c2)cc1OCCc1ccc2c(n1)NCCC2 (stereo not drawn) [Example 2, 3-(3-chloro-5-fluorophenyl)-4-(1-methyl-5-(2-(5,6,7,8-tetrahydro-1,8-naphthyridin-2-yl)ethoxy)-1H-pyrazol-3-yl)butanoic Acid] | 43 nM | 4 nM | 192 nM | 0.3 nM |
